Experimental data taken from patent publication US4310660A, “Lincomycin compounds” (The Upjohn Company, priority 1980, dated 1982).
Values after ≈ are worked out from the molar mass of the structure shown. Where two headings read alike, the source gives them in different places.

What was measured:
Type in all cases: cell-based
[1] = system: Streptococcus faecalis; assay: MIC vs. aerobic bacteria, microplate broth-dilution (BHI); settings: St. faecalis UC 694
Protocol: (§1) The Minimal Inhibitory Concentration (MIC's) of both compounds Vs. aerobic bacteria is determined using a standard microplate broth-dilution method. Brain Heart Infusion (BHI-Difco) broth medium is used, and the plates are incubated at 37° C. for 20 hrs.

[2] = system: Pseudomonas aeruginosa; assay: as above; settings: UC95, 20 h, Ps. aeruginosa UC 95, read-out: MIC
Protocol: as §1

[3] = system: Diplococcus pneumoniae; assay: as above; settings: D. pneumoniae UC 41
Protocol: as §1

[4] = system: Proteus vulgaris; assay: as above; settings: P. vulgaris UC 93
Protocol: as §1

[5] = system: Klebsiella pneumoniae; assay: as above; settings: K. pneumoniae UC 58
Protocol: as §1

[6] = system: Escherichia coli; assay: as above; settings: UC45, 20 h, E. coli UC 45, read-out: MIC
Protocol: as §1

[7] = system: Salmonella schottmuelleri; assay: as above; settings: S. schottmuelleri UC 126
Protocol: as §1

[8] = system: S. hemolyticus; assay: MIC, test procedure as given supra; settings: S. hemolyticus UC 152
Protocol: as §1
The Minimal Inhibitory Concentration (MIC's) of a representative number of the compounds prepared in Examples 2-8 follows. The test procedure is as given supra.

[9] = system: Staphylococcus aureus; assay: MIC vs. aerobic bacteria, microplate broth-dilution (BHI)
[10] = Enterococcus faecalis, UC694, 20 h, read-out: MIC
[11] = Streptococcus pneumoniae, UC41, 20 h, read-out: MIC
[12] = Proteus vulgaris, UC93, 20 h, read-out: MIC
[13] = Klebsiella pneumoniae, UC58, 20 h, read-out: MIC
[14] = Staphylococcus aureus, UC76, 20 h, S. aureus UC 76, read-out: MIC
[15] = Staphylococcus aureus, UC570, 20 h, S. aureus UC 570, read-out: MIC
[16] = Staphylococcus aureus, UC746, 20 h, S. aureus UC 746, read-out: MIC

Structure (SMILES) | MIC [1, 10] | MIC [2] | MIC [3, 11] | MIC [4, 12] | MIC [5, 13] | MIC [6] | MIC ([7]; Salmonella, UC126, 20 h) | MIC ([8]; UC152, 20 h, read-out: MIC) | MIC [9, 14] | MIC [9, 15] | MIC [9, 16] | also measured
CS[C@H]1O[C@H]([C@H](NC(=O)C2CCCCN2CCO)[C@H](C)Cl)[C@H](O)[C@H](O)[C@H]1O (stereo partly drawn) [U-44,469] | 1000 µg/mL (≈ 2340 µM) | > 1000 µg/mL | 31.3 µg/mL (≈ 73.3 µM) | > 1000 µg/mL | > 1000 µg/mL | > 1000 µg/mL | > 1000 µg/mL | 31.3 µg/mL (≈ 73.3 µM) | 250 µg/mL (≈ 586 µM) | 250 µg/mL (≈ 586 µM) | > 1000 µg/mL | –
CCc1ccnc(C(=O)N[C@@H]([C@H]2O[C@H](SC)[C@H](O)[C@@H](O)[C@H]2O)[C@H](C)Cl)c1 [U-45,652] | > 1000 µg/mL | > 1000 µg/mL | 500 µg/mL (≈ 1230 µM) | > 1000 µg/mL | 500 µg/mL (≈ 1230 µM) | > 1000 µg/mL | > 1000 µg/mL | 500 µg/mL (≈ 1230 µM) | 1000 µg/mL (≈ 2470 µM) | > 1000 µg/mL | 1000 µg/mL (≈ 2470 µM) | –
CCc1ccnc(C(=O)N[C@@H]([C@H]2O[C@H](SC)[C@H](O)[C@@H](O)[C@H]2O)[C@@H](C)O)c1 [U-45,653] | > 1000 µg/mL | > 1000 µg/mL | > 1000 µg/mL | > 1000 µg/mL | > 1000 µg/mL | > 1000 µg/mL | > 1000 µg/mL | > 1000 µg/mL | > 1000 µg/mL | > 1000 µg/mL | > 1000 µg/mL | –
CCc1ccc(C(=O)N[C@@H]([C@H]2O[C@H](SC)[C@H](O)[C@@H](O)[C@H]2O)[C@H](C)Cl)nc1 [U-45,656] | 1000 µg/mL (≈ 2470 µM) | > 1000 µg/mL | – | > 1000 µg/mL | 1000 µg/mL (≈ 2470 µM) | > 1000 µg/mL | 1000 µg/mL (≈ 2470 µM) | 3.9 µg/mL (≈ 9.63 µM) | 62.5 µg/mL (≈ 154 µM) | 62.5 µg/mL (≈ 154 µM) | 62.5 µg/mL (≈ 154 µM) | –
CS[C@H]1O[C@H]([C@H](NC(=O)c2cccnc2Cl)[C@H](C)Cl)[C@H](O)[C@H](O)[C@H]1O [U-45,657] | > 1000 µg/mL | > 1000 µg/mL | – | > 1000 µg/mL | > 1000 µg/mL | > 1000 µg/mL | > 1000 µg/mL | 7.8 µg/mL (≈ 19 µM) | 125 µg/mL (≈ 304 µM) | 250 µg/mL (≈ 608 µM) | 250 µg/mL (≈ 608 µM) | –
CS[C@H]1O[C@H]([C@H](NC(=O)c2ccccn2)[C@H](C)Cl)[C@H](O)[C@H](O)[C@H]1O [U-45,863] | – | > 1000 µg/mL | 62.5 µg/mL (≈ 166 µM) | > 1000 µg/mL | > 1000 µg/mL | > 1000 µg/mL | > 1000 µg/mL | 2 µg/mL (≈ 5.31 µM) | 62.5 µg/mL (≈ 166 µM) | – | – | –
CS[C@H]1O[C@H]([C@H](NC(=O)c2ccccn2)[C@H](C)O)[C@H](O)[C@H](O)[C@H]1O [U-46,135] | > 1000 µg/mL | > 1000 µg/mL | > 1000 µg/mL | > 1000 µg/mL | > 1000 µg/mL | > 1000 µg/mL | > 1000 µg/mL | 1000 µg/mL (≈ 2790 µM) | > 1000 µg/mL | > 1000 µg/mL | > 1000 µg/mL | –
CS[C@H]1O[C@H]([C@H](NC(=O)c2ccccn2)[C@@H](C)O)[C@H](O)[C@H](O)[C@H]1O [U-46,136] | > 1000 µg/mL | > 1000 µg/mL | > 1000 µg/mL | > 1000 µg/mL | > 1000 µg/mL | > 1000 µg/mL | > 1000 µg/mL | 1000 µg/mL (≈ 2790 µM) | > 1000 µg/mL | > 1000 µg/mL | > 1000 µg/mL | –
CS[C@H]1O[C@H]([C@H](NC(=O)c2ccncc2)[C@H](C)Cl)[C@H](O)[C@H](O)[C@H]1O [U-46,137] | > 1000 µg/mL | 1000 µg/mL (≈ 2650 µM) | 500 µg/mL (≈ 1330 µM) | > 1000 µg/mL | 1000 µg/mL (≈ 2650 µM) | 1000 µg/mL (≈ 2650 µM) | 1000 µg/mL (≈ 2650 µM) | 1000 µg/mL (≈ 2650 µM) | > 1000 µg/mL | > 1000 µg/mL | > 1000 µg/mL | –
CS[C@H]1O[C@H]([C@H](NC(=O)C2CCCCN2)[C@H](C)Cl)[C@H](O)[C@H](O)[C@H]1O (stereo partly drawn) [U-46,337] | – | > 1000 µg/mL | – | > 1000 µg/mL | > 1000 µg/mL | > 1000 µg/mL | > 1000 µg/mL | – | – | – | – | MIC ([1]; listed as 46,337): > 1000 µg/mL; MIC ([3]; listed as 46,337): 250 µg/mL (≈ 653 µM); MIC ([8]; listed as 46,337): 250 µg/mL (≈ 653 µM); MIC ([9]; S. aureus UC 76, listed as 46,337): 1000 µg/mL (≈ 2610 µM); MIC ([9]; S. aureus UC 570, listed as 46,337): 1000 µg/mL (≈ 2610 µM); MIC ([9]; S. aureus UC 746, listed as 46,337): 1000 µg/mL (≈ 2610 µM)
CS[C@H]1O[C@H]([C@H](NC(=O)C2CCCCN2)[C@H](C)Cl)[C@H](O)[C@H](O)[C@H]1O (stereo partly drawn) [U-46,465] | – | – | – | – | – | – | – | – | – | – | – | MIC ([1]; listed as 46,465): 3.9 µg/mL (≈ 10.2 µM); MIC ([3]; listed as 46,465): < 1.0 µg/mL; MIC [4]: 1000 µg/mL (≈ 2610 µM); MIC [5]: 500 µg/mL (≈ 1310 µM); MIC [7]: 1000 µg/mL (≈ 2610 µM); MIC ([8]; listed as 46,465): < 1.0 µg/mL; MIC ([9]; S. aureus UC 76, listed as 46,465): 3.9 µg/mL (≈ 10.2 µM); MIC ([9]; S. aureus UC 570, listed as 46,465): 31.2 µg/mL (≈ 81.5 µM); MIC ([9]; S. aureus UC 746, listed as 46,465): 3.9 µg/mL (≈ 10.2 µM)
CS[C@H]1O[C@H]([C@H](NC(=O)C2CCCCN2C)[C@H](C)Cl)[C@H](O)[C@H](O)[C@H]1O (stereo partly drawn) [U-46,699] | 15.6 µg/mL (≈ 39.3 µM) | > 1000 µg/mL | < 1 µg/mL | 1000 µg/mL (≈ 2520 µM) | 250 µg/mL (≈ 630 µM) | 1000 µg/mL (≈ 2520 µM) | > 1000 µg/mL | 3.9 µg/mL (≈ 9.83 µM) | 3.9 µg/mL (≈ 9.83 µM) | 7.8 µg/mL (≈ 19.7 µM) | 7.8 µg/mL (≈ 19.7 µM) | –
CS[C@H]1O[C@H]([C@H](NC(=O)C2CCCCN2)[C@@H](C)O)[C@H](O)[C@H](O)[C@H]1O (stereo partly drawn) [U-60,492] | – | – | – | – | – | – | – | – | – | – | – | MIC [1]: > 1000 µg/mL; MIC [3]: 31.2 µg/mL (≈ 85.6 µM); MIC [8]: 15.6 µg/mL (≈ 42.8 µM); MIC ([9]; S. aureus UC 570): > 1000 µg/mL; MIC ([9]; S. aureus UC 746): 250 µg/mL (≈ 686 µM)
CS[C@H]1O[C@H]([C@H](NC(=O)C2CCCCN2)[C@@H](C)O)[C@H](O)[C@H](O)[C@H]1O (stereo partly drawn) [U-60,493] | 1000 µg/mL (≈ 2740 µM) | > 1000 µg/mL | 15.6 µg/mL (≈ 42.8 µM) | > 1000 µg/mL | > 1000 µg/mL | > 1000 µg/mL | > 1000 µg/mL | 7.8 µg/mL (≈ 21.4 µM) | 1000 µg/mL (≈ 2740 µM) | 1000 µg/mL (≈ 2740 µM) | 250 µg/mL (≈ 686 µM) | –
